Measured values taken from article PMC4941353, “Interaction of antihistaminic drugs with human translationally controlled tumor protein (TCTP) as novel approach for differentiation therapy” (Oncotarget, 2016).

Experiments:
[1] = target: T1, translationally controlled tumor protein (TCTP) (Homo sapiens, UniProt P13693); assay: microscale thermophoresis with amine-labeled (BLUE-NHS) purified TCTP, buffer with […] chloroform; type: binding
T1 construct: gene TPT1; recombinant human TCTP (172 amino acids), codon-optimized, expressed in E. coli, intein tag cleaved on column
T1 sequence (P13693 1-172): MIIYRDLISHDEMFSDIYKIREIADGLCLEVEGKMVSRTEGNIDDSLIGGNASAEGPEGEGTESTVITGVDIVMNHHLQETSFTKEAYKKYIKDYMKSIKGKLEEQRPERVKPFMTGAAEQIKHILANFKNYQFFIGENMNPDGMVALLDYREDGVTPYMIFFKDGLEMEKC

[2] = target: T1, translationally controlled tumor protein (TCTP); assay: microscale thermophoresis with amine-labeled (BLUE-NHS) purified TCTP; type: binding

SMILES | Kd [1] | Kd [2]
CC(C)(C)c1ccc(CN2CCN(C(c3ccccc3)c3ccc(Cl)cc3)CC2)cc1 (centres unmarked) [buclizine] | 433 ± 47.1 µM | –
COc1ccc2c(c1)N(C[C@H](C)CN(C)C)c1ccccc1S2 [levomepromazine] | – | 57.2 ± 6.49 µM
